Data as given in publication PMC6337650 (Molecules, 2018).
Like-named read-outs stand apart in the source and are kept apart here.

Key:
HCT-116 cells = assay: Cell cycle analysis by flow cytometry (PI); type: cell-based, human; details: 24 h; for proportion of cells in the S phase: control 18.64%; for proportion of cells in the G1 phase: control 70.67%
Method: HCT-116 cells were plated in 6-well plates (5.0 × 10^5 cells per well) and incubated at 37 °C for 24 h. Exponentially growing cells were then incubated with compound 5d at 5 and 15 µM. After 24 h, untreated cells (control) or cells treated with compound 5d were centrifuged at 1000 rpm for 10 min and then fixed in 70% ethanol at −20 °C for at least 24 h. The cells were subsequently resuspended in phosphate-buffered saline (PBS) containing 0.1 mg/mL of RNase A and 5 µg/mL propidium iodide (PI). The cellular DNA content for the cell cycle distribution analysis was measured by flow cytometry using a FACSCalibur flow cytometer with Cell Quest software (Becton-Dickinson, Franklin Lakes, NJ, USA), plotting at least 30,000 events per sample. The percentage of cells in the G1, S and G2 phases of the cell cycle were determined using the ModFit LT version 4.0 software package (Verity Software, Topsham, ME, USA).

L02 cells = assay: MTT assay on normal liver cells L02; type: cell-based; details: Homo sapiens
Method: The antiproliferative activity of the target compounds against a normal L02 cell line and the three different human cancer cell lines viz. colorectal (HCT-116), liver (BEL-7402) and liver (HepG2) were evaluated using a standard MTT-based colorimetric assay. All cell lines were obtained from the Key Laboratory of Natural Resources and Functional Molecules of the Changbai Mountain (Yanbian University, Jilin, China) and maintained in Dulbecco’s modified Eagle’s medium (DMEM) and RPMI Media 1640 (RPMI1640), supplemented with 10% fetal bovine serum (FBS) at 37 °C in a humidified atmosphere containing 5% CO2.
Cells were plated in 96-well plates at appropriate densities to ensure exponential growth throughout the experimental period (9 × 10^3 cells per well) and then allowed to adhere for 24 h. Cells were then treated for 48 h with four serial concentrations (1, 10, 50 and 100 µM) of each compound. […] After 48 h of incubation, 10 µL of MTT solution was added to each well to a final concentration of 2 mg/mL. Plates were then incubated for a further 4 h. After incubation, the MTT solution was removed and 150 µL of DMSO was added to each well for coloration. The plates were shaken vigorously for 10 min at room temperature to ensure complete solubilization. The optical density (OD) was read on a microplate reader (ELx800, BioTek, Highland Park, Winooski, VT, USA) at a wavelength of 492 nm and the data were subsequently analyzed. The percentage of cell growth inhibition was calculated from the following equation: Inhibitory rate (%) = [(1 − (ODtreated-ODblank)/(ODcontrol-ODblank)] × 100.(1)

Cc1ccc(-n2cc(CNC(=O)COC(=O)[C@]3(C)CCC[C@@]4(C)[C@@H]5CC[C@@]6(C)C[C@]5(CC[C@@H]43)CC6=O)nn2)cc1 [Compound 5d, 2-oxo-2-(((1-(p-tolyl)-1H-1,2,3-triazol-4-yl)methyl)amino)ethyl(4R,4aS,6aR,9S,11aR,11bS)-4,9,11b-trimethyl-8-oxotetradecahydro-6a,9-methanocyclohepta[a]naphthalene-4-carboxylate]
proportion of cells in the S phase (HCT-116 cells; 5 μM): 25.70%
proportion of cells in the G1 phase (HCT-116 cells; 5 μM): 51.67%
proportion of cells in the S phase (HCT-116 cells; 15 μM): 42.31%
proportion of cells in the G1 phase (HCT-116 cells; 15 μM): 41.32%
IC50 (L02 cells; normal cell line, Table 3, read-out: (IC50, μM) L02): 161 ± 1.96 µM
IC50 (L02 cells; normal liver cells, 48 h, MTT, Table 2, read-out: IC50 Values (μM) L02): > 100 µM
